Source: ChEMBL document CHEMBL6153089, “Design, Synthesis, and Biological Evaluation of Thieno[3,2-d]pyrimidine Derivatives as the First Bifunctional PI3Kδ Isoform Selective/Bromodomain and Extra-Terminal Inhibitors” (J Med Chem, 2025)

Columns and labels:
[1] = tested on: SU-DHL-6; experiment: Antiproliferative against activity human SU-DHL-6 cells assessed as inhibition of cell growth incubated for 72 hrs by Celltiter-luminescence analysis; format: functional, cell-based; settings: SU-DHL-6, 72 h
[2] = target: PI3-kinase p110-delta/p85-alpha (Homo sapiens) (UniProt P27986+O00329); experiment: Inhibition of p110delta/p85alpha (unknown origin) at 100 nM incubated for 2 hrs in presence of ATP by ADP-kinaseGlo reagent based assay relative to control; format: protein-complex assay
[3] = target: PI3-kinase p110-delta/p85-alpha (Homo sapiens, UniProt O00329); experiment: Inhibition of p110delta/p85alpha (unknown origin) incubated for 2 hrs in presence of ATP by ADP-kinaseGlo reagent based assay; format: protein-complex assay
[4] = target: T1, Bromodomain-containing protein 4 (Homo sapiens, UniProt O60885); experiment: Inhibition of His-tagged BRD4-BD1 (unknown origin) at 10 nM incubated for 30 mins by Alphascreen assay relative to control
[5] = tested on: SUD4; experiment: Antiproliferative against activity human SU-DHL-4 cells assessed as inhibition of cell growth incubated for 72 hrs by Celltiter-luminescence analysis; format: functional, cell-based; settings: SU-DHL-4, 72 h
[6] = target: T1, Bromodomain-containing protein 4; experiment: Inhibition of His-tagged BRD4-BD1 (unknown origin) incubated for 30 mins in presence of ATP by Alphascreen assay
[7] = tested on: SU-DHL-6; experiment: Antiproliferative against activity human SU-DHL-6 cells assessed as inhibition of cell growth incubated for 72 hrs in presence of 10:1 compound:ABBV-75 by Celltiter-luminescence analysis; format: functional, cell-based; settings: SU-DHL-6, 72 h
[8] = tested on: SUD4; experiment: Antiproliferative against activity human SU-DHL-4 cells assessed as inhibition of cell growth incubated for 72 hrs in presence of 10:1 compound:ABBV-75 by Celltiter-luminescence analysis; format: functional, cell-based; settings: SU-DHL-4, 72 h

Sequence of PI3-kinase p110-delta/p85-alpha (P27986 whole entry): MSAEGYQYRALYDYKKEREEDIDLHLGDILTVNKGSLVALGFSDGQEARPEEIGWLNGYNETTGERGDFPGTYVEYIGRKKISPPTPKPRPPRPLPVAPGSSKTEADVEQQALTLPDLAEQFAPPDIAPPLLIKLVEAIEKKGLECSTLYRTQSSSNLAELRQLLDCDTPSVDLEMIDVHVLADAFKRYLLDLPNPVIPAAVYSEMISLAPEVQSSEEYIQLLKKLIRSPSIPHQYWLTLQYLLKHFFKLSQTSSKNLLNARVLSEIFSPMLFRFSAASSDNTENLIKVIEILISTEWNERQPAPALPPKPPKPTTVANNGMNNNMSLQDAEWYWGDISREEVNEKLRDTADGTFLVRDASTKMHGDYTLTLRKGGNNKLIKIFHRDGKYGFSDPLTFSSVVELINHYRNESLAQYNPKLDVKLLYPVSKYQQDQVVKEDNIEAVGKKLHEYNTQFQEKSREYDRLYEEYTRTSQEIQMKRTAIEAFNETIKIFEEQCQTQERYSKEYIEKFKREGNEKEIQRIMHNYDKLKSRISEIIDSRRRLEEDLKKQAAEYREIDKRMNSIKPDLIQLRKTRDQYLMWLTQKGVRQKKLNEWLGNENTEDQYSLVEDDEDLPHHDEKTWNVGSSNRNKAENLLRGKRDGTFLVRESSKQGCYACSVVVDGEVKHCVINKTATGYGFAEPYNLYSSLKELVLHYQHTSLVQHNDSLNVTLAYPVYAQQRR
Sequence of PI3-kinase p110-delta/p85-alpha (O00329 whole entry): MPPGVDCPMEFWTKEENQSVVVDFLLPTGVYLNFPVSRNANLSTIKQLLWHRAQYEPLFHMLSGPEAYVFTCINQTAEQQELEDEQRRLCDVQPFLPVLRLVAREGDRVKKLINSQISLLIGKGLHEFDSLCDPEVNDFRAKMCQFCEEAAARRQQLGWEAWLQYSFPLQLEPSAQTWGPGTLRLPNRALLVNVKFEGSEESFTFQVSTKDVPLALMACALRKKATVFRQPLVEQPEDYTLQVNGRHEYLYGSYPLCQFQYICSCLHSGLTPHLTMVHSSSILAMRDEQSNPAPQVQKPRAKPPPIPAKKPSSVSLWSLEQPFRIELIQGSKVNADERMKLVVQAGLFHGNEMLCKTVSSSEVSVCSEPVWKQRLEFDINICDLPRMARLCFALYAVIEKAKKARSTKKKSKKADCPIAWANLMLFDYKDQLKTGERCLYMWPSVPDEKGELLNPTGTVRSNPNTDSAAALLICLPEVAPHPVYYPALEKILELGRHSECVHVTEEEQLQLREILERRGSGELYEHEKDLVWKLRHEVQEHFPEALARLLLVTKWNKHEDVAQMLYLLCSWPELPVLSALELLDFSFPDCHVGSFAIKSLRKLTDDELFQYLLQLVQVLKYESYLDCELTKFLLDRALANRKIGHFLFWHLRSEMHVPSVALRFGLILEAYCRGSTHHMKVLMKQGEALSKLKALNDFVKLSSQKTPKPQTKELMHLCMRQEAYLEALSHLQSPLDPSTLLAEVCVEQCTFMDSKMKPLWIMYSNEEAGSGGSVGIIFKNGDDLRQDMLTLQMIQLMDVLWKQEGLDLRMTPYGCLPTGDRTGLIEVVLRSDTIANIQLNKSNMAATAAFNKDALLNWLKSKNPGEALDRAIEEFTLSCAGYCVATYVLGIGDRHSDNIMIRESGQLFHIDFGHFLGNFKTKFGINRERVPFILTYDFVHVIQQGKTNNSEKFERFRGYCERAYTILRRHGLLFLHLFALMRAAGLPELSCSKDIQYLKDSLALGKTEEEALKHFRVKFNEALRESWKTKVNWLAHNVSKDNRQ

Structure (SMILES) | IC50 [1] [nM] | inhibition [2] [%] | IC50 [3] [nM] | inhibition [4] [%] | IC50 [6] [nM] | IC50 [7] [nM] | IC50 [5] [nM] | IC50 [8] [nM]
CC(=O)N1CCN(Cc2cc3nc(-c4cn(C)c(=O)c5[nH]ccc45)nc(N4CCOCC4)c3s2)CC1 | 79 | 46.9 | 108 | 44.2 | 11 |  | 166 | 
Fc1ccc2[nH]ccc2c1-c1nc(N2CCOCC2)c2sc(CN3CCN(CC4CC4)CC3)cc2n1 | 1820 |  | 23 |  |  | 10 | 263 | 14
Cn1cc(-c2nc(N3CCOCC3)c3sc(CN4CCC(O)CC4)cc3n2)c2cc[nH]c2c1=O |  | 19.4 |  | 36 |  |  |  | 
C[C@H](O)C(=O)N1CCN(Cc2cc3nc(-c4cn(C)c(=O)c5[nH]ccc45)nc(N4CCOCC4)c3s2)CC1 |  | 33.2 | 206 | 39.9 | 11 |  |  | 
C[C@@H](N)C(=O)N1CCN(Cc2cc3nc(-c4cn(C)c(=O)c5[nH]ccc45)nc(N4CCOCC4)c3s2)CC1 |  | 16.2 |  | 56.8 |  |  |  | 
Cn1cc(-c2nc(N3CCOCC3)c3sc(CN4CCN(C(=O)C(C)(C)O)CC4)cc3n2)c2cc[nH]c2c1=O |  | 20.1 |  | 32.6 |  |  |  | 

Second part, led by results:

IC50 [1] [nM] | inhibition [2] [%] | IC50 [3] [nM] | inhibition [4] [%] | IC50 [6] [nM] | IC50 [7] [nM] | Structure (SMILES) | IC50 [5] [nM] | IC50 [8] [nM]
 | 21.5 |  | 3 |  |  | CC(=O)Nc1cc(-c2nc(N3CCOCC3)c3sc(CN4CCN(CC5CC5)CC4)cc3n2)cn(C)c1=O |  | 
 | 6 |  | 1.4 |  |  | Cc1c(-c2nc(N3CCOCC3)c3sc(CN4CCN(CC5CC5)CC4)cc3n2)cn(C)c(=O)c1N |  | 
53 | 19.5 | 464 | 58.2 | 7.8 |  | Cn1cc(-c2nc(N3CCOCC3)c3sc(CN4CCN(CC5CC5)CC4)cc3n2)c2cc[nH]c2c1=O | 220 | 
 | 6 |  | 9.1 |  |  | CNc1cc(-c2nc(N3CCOCC3)c3sc(CN4CCN(CC5CC5)CC4)cc3n2)cn(C)c1=O |  | 
 | 7.7 |  | 18.1 |  |  | Cn1cc(-c2nc(N3CCOCC3)c3sc(CN4CCN(CC5CC5)CC4)cc3n2)cc(N)c1=O |  | 
